Laboratory results: ChEMBL document CHEMBL6120988, “Mitochondria-targeting artesunate-rhein conjugates: Linker-modulated cell-permeability, heme-affinity and anticancer activity” (Eur J Med Chem, 2025)
The source made the active and inactive calls. The calls are words filed in the database; no cut-off is given here.

Columns and labels:
4T1 [1] = assay: Induction of immunogenic cell death in mouse 4T1 cells assessed as increase in CRT expression by flow cytometry analysis (reference value: 2.55%); format: functional
4T1 [2] = assay: Immunostimulatory activity in mouse 4T1 cells implanted in female BALB/c mouse assessed as reduction in immunosuppressive CD206+ expression; format: functional, cell-based
MCF7 = assay: Cytotoxicity against human MCF7 cells assessed as cell viability by MTT assay; format: functional, cell-based
4T1 [3] = assay: Induction of apoptosis in mouse 4T1 cells assessed as late apoptotic cells by Annexin V-FITC and PI staining based flow cytometry analysis (reference value: 0.13 %); format: functional
4T1 [4] = assay: Induction of apoptosis in mouse 4T1 cells assessed as necrotic cells by Annexin V-FITC and PI staining based flow cytometry analysis (reference value: 0.085 %); format: functional
Mitochondrial membrane = assay: Induction of mitochondrial membrane potential loss in mouse 4T1 cells assessed as increase in green fluorescence by JC-1 staining based flow cytometric analysis (reference value: 7.4 %); format: cell membranes
4T1 [5] = assay: Induction of ROS production in mouse 4T1 cells assessed as increase in intracellular ROS level by […] staining based flow cytometry (reference value: 7.8%); format: functional
[6] = Toxicity in female BALB/c mouse allografted with mouse 4T1 cells assessed as change in body weight at 10 mg/kg, iv administrated every 3 day for 5 times and measured every 2 days for 22 days relative to control; format: organism-based; settings: in vivo, 528 h, time 22 day
[7] = Toxicity in female BALB/c mouse allografted with mouse 4T1 cells assessed as survival rate at 100 mg/kg, po administrated every day for 15 times and measured after 22 days relative to control; format: organism-based; settings: in vivo, 528 h, time 22 day
[8] = Toxicity in female BALB/c mouse allografted with mouse 4T1 cells assessed as effect on blood platelet at 100 mg/kg, po administrated every day for 15 times and measured after 22 days; format: organism-based; settings: in vivo, 528 h, time 22 day
4T1 [9] = assay: Antitumor activity against mouse 4T1 cells allografted in female BALB/c mouse assessed as reduction in tumor tissue weight at 100 mg/kg, po administrated every day for 15 times and measured after 22 days; format: functional, organism-based; settings: time 22.0 day
4T1 [10] = assay: Antitumor activity against mouse 4T1 cells allografted in female BALB/c mouse assessed as reduction in tumor tissue weight at 10 mg/kg, iv administrated every 3 day for 5 times and measured after for 22 days; format: functional, organism-based; settings: time 22.0 day
[11] = Toxicity against female BALB/c mouse allografted with mouse 4T1 cells assessed as effect on red blood cells at 10 mg/kg, iv administrated every 3 days for 5 times and measured after 22 days; format: organism-based; settings: in vivo, 528 h, time 22 day
[12] = Toxicity against female BALB/c mouse allografted with mouse 4T1 cells assessed as effect on white blood cells at 10 mg/kg, iv administrated every 3 days for 5 times and measured after 22 days; format: organism-based; settings: in vivo, 528 h, time 22 day
[13] = Toxicity against female BALB/c mouse allografted with mouse 4T1 cells assessed as effect on white blood cells at 100 mg/kg, po administrated every day for 15 times and measured after 22 days; format: organism-based; settings: in vivo, 528 h, time 22 day
4T1 [14] = assay: Antitumor activity against mouse 4T1 cells allografted in female BALB/c mouse assessed as disappearance of cancer cells at 10 mg/kg, iv administrated every 3 days for 5 times and measured after 22 days by H and E staining based analysis; format: functional, organism-based; settings: time 22.0 day
[15] = Toxicity against female BALB/c mouse allografted with mouse 4T1 cells assessed as mean corpuscular hemoglobin concentration at 10 mg/kg, iv administrated every 3 days for 5 times and measured after 22 days; format: organism-based; settings: in vivo, 528 h, time 22 day
[16] = Toxicity against female BALB/c mouse allografted with mouse 4T1 cells assessed as mean corpuscular hemoglobin concentration at 100 mg/kg, po administrated every day for 15 times and measured after 22 days; format: organism-based; settings: in vivo, 528 h, time 22 day
[17] = Toxicity against female BALB/c mouse allografted with mouse 4T1 cells assessed as hemoglobin at 10 mg/kg, iv administrated every 3 days for 5 times and measured after 22 days; format: organism-based; settings: in vivo, 528 h, time 22 day
4T1 [18] = assay: Antitumor activity against mouse 4T1 cells allografted in female BALB/c mouse assessed as increase in apoptotic cells at 100 mg/kg, po administrated every day for 15 times and measured after 22 days by TUNEL staining based assay; format: functional, organism-based; settings: time 22.0 day
4T1 [19] = assay: Antitumor activity against mouse 4T1 cells allografted in female BALB/c mouse assessed as increase in apoptotic cells at 10 mg/kg, iv administrated every 3 day for 5 times and measured after 22 days by TUNEL staining based assay; format: functional, organism-based; settings: time 22.0 day
4T1 [20] = assay: Induction of immunogenic cell death in mouse 4T1 cells assessed as increase in CRT exposure on cell surface by measuring increase in red fluorescence by CLSM analysis (reference value: 2.55%); format: functional
4T1 [21] = assay: Induction of repolarization of M2 macrophages into M1 macrophages in mouse 4T1 cells assessed as ratio of M2 to M1 macrophages; format: functional, cell-based
4T1 [22] = assay: Induction of immunogenic cell death in mouse 4T1 cells allografted in female BALB/c mouse assessed as increase in CD80+ CD86+CD11c+ cells DC maturation at 10 mg/kg, iv administrated every 3 days for 5 times and measured after 22 days by flow cytometry (reference value: 7.77 %); format: functional; settings: time 22 day
4T1 [23] = assay: Antitumor activity against mouse 4T1 cells allografted in female BALB/c mouse assessed as increase in infiltration of CD3+ CD8+ T lymphocytes in tumors at 10 mg/kg, iv administrated every 3 days for 5 times and measured after 22 days by flow cytometry analysis (reference value: 7.87 %); format: functional; settings: time 22 day
4T1 [24] = assay: Antitumor activity against mouse 4T1 cells allografted in female BALB/c mouse assessed as increase in infiltration of CD8+IFN-gamma+ lymphocytes in tumors at 100 mg/kg, po administrated every day for 15 times and measured after 22 days by flow cytometry (reference value: 5.99%); format: functional; settings: time 22 day
4T1 [25] = assay: Antitumor activity against mouse 4T1 cells allografted in female BALB/c mouse assessed as increase in infiltration of CD44+CD62L- lymphocytes in tumors at 100 mg/kg, po administrated every day for 15 times and measured after 22 days by flow cytometry (reference value: 5.5%); format: functional; settings: time 22 day
[26] = Half life in mouse at 100 mg/kg, po; format: ADME, organism-based; settings: in vivo
[27] = Half life in mouse iv dosed mouse; format: ADME, organism-based; settings: in vivo
[28] = Tmax in mouse iv dosed mouse; format: ADME, organism-based; settings: in vivo
4T1 [29] = assay: Induction of mitochondrial dysfunction in mouse 4T1 cells assessed as oxygen consumption rate; format: functional, cell-based
4T1 [30] = assay: Cytotoxicty against mouse 4T1 cells assessed as cell death by measuring red staining by calcein/PI staining based live/dead staining analysis; format: functional
4T1 [31] = assay: Induction of immunogenic cell death in mouse 4T1 cells assessed as increase in ATP release by measuring increase in red fluorescence by CLSM analysis relative to R/A group; format: functional, cell-based

C[C@H]1[C@H](OC(=O)CCC(=O)OCCCCOC(=O)c2cc(O)c3c(c2)C(=O)c2cccc(O)c2C3=O)O[C@@H]2O[C@@]3(C)CC[C@H]4[C@H](C)CC[C@@H]1[C@@]24OO3
Activity (4T1 [1]): 32.82%
Activity (4T1 [2]): Active
IC50 (MCF7): 1900 nM
Activity (4T1 [3]): 29.4%
Activity (4T1 [4]): 0.27%
Activity (Mitochondrial membrane): 45.6%
Activity (4T1 [5]): 42.5%
Activity [6]: Non-toxic
Survival [7]: <= 39 day
Activity [8]: Non-toxic
Activity (4T1 [9]): Active
Activity (4T1 [10]): Active; Tumor Lighter Weight Than Pbs Treatment
Activity [11]: Non-toxic
Activity [12]: Non-toxic
Activity [13]: Non-toxic
Activity (4T1 [14]): Active
Activity [15]: Non-toxic
Activity [16]: Non-toxic
Activity [17]: Non-toxic
Activity (4T1 [18]): Active
Activity (4T1 [19]): Active
Activity (4T1 [20]): Active
Activity (4T1 [20]; record 2): 32.82%
Activity (4T1 [21]): Active; Compound Triggers Repolarization By Reversing The Ratio Of M2 To M1 Macrophages
Activity (4T1 [22]): 20%
Activity (4T1 [23]): 15.33%
Activity (4T1 [24]): 13.3%
Activity (4T1 [25]): 17.2%
half-life [26]: 5.15 h
half-life [27]: 7.01 h
Tmax [28]: 0.17 h
Activity (4T1 [29]): Active
Activity (4T1 [30]): Active
Activity (4T1 [31]): Active
